According to patent US20150290294A1, “METHODS FOR INHIBITING PLATELET AGGREGATION USING GLP-1 RECEPTOR AGONISTS” (priority 2012, published 2015):
Ends that are not written are not given here.

Legend:
MEG-01 cells = experiment: Intracellular cAMP EIA assay; type: cell-based, human
Experimental: An EIA kit (Cayman Chemicals) was employed to measure intracellular cAMP levels. […] 3-isobutyl-1-methylxanthine (IBMX) was added to each well at a concentration of 0.5 μM and allowed to incubate for 10 min at 37° C. to inhibit phosphodiesterase activity. As a positive control for cAMP generation in MEG-01 cells, PGI2 was added at a concentration of 0.02 ng/ml to control wells and incubated for 10 min at 37° C. PBS was used as a negative control. After incubation, cells were lysed by adding EDTA to a concentration of 10 mM. Lysed cells were transferred to 1.5 ml eppendorf tubes and boiled for 5 min at 95° C. Samples were spun down at 10000 xg for 15 min at 4° C. Supernatant was removed and frozen at −80° C. The cAMP EIA kit assay was then carried out according to manufacturer's instructions.
Given the limited specificity of Abs raised against GPCRs, RT-PCR was performed on RNA from MEG-01 cells with primers designed to yield full-length human GLP-1R cDNA.

[1] = test system: human gel-filtered platelets; experiment: Thrombin-induced platelet aggregation (aggregometer); type: cell-based; settings: for effect on human platelet aggregation after thrombin stimulation: 10 nM each, 0.5 U thrombin; for effect on human platelet aggregation after thrombin stimulation / effect on thrombin-induced human platelet aggregation vs PBS control: 15 min 37 °C; for effect on thrombin-induced human platelet aggregation vs PBS control: 100 pM-1 uM (10^-10 to 10^-6 M)
Experimental: Platelets were then stimulated with thrombin and aggregation was measured using an aggregometer.

platelets = settings: associated with inhibitory effect on intracellular free calcium and tyrosine phosphorylation; cited from earlier work

CCCCC[C@H](O)/C=C/[C@@H]1[C@H]2C/C(=C/CCCC(=O)O)O[C@H]2C[C@H]1O [PGI2, prostacyclin PGI2, reference compound]
cAMP response (positive control) (MEG-01 cells; PGI2 0.02 ng/ml, 10 min 37 °C): 16 fold

GLP-1(9-36) (EGTFTSDVSSYLEGQAAKEFIAWLVKGR-NH2)
effect on human platelet aggregation after thrombin stimulation [1]: delayed human platelet aggregation
effect on human platelet aggregation after thrombin stimulation ([1]; listed as GLP-1(9-36)^NH2): inhibited human platelet aggregation, but to a lesser extent than GLP-1(7-36)^NH2

GLP-1(7-36)
effect on thrombin-induced human platelet aggregation vs PBS control ([1]; thrombin 0.125 U): delayed and reduced
effect on thrombin-induced human platelet aggregation vs PBS control ([1]; thrombin 0.125 U, listed as GLP-1): delayed and reduced platelet aggregation
effect on human platelet aggregation after thrombin stimulation [1]: delayed human platelet aggregation
total area under curve of aggregation ([1]; between 0.1 nM and 100 nM, thrombin 0.125 U, not significant, n=3): some inhibition of platelet activity
intracellular cAMP, qualitative (MEG-01 cells; 15 min incubation, 100 pM to 100 nM, n=3): dose-dependent increase in cAMP

N[C@@H](CC(=O)N1CCn2c(nnc2C(F)(F)F)C1)Cc1cc(F)c(F)cc1F [sitagliptin]
anti-platelet activity (platelets): exhibited anti-platelet activity
